In one data set the target is T1, hCB2-HEK293 membranes (Homo sapiens, UniProt P34972).
T1 construct: expressed in transfected cells; host or cells: HEK293
In words: CB-2 membrane binding assay ([3H] CP 55,940 displacement). As to conditions: mean where tested more than once.

The next data set deals with hCB1-CHO-K1 membranes (Homo sapiens, UniProt P21554). The experiment in a line: CB-1 membrane binding assay ([3H] CP 55,940 displacement).
Data set [1] in a line: Chronic DIO mouse: plasma and brain concentrations. It counts as in vivo. The conditions noted are these: for Brain concentration (Std Dev): DIO mice, second study. On the procedure: Male 14-20-week old diet-induced obese mice were ordered from Taconic. Mice were started on a 60% fat diet (D12492, Research Diets, New Brunswick, N.J.) at 6 weeks of age. Mice were single-housed.
(§1) Test compounds were formulated in 10% PEG400 and 10% solutol. Test compounds were administered by oral gavage (5 ml kg^−1).
The test compound was formulated in 10% PEG400 and 10% solutol. DIO mice received vehicle, test compound (@1, 3 and 10 mg/kg) daily for 26 days. At the end of the experiment, the mice were euthanized and blood and tissues were collected.
Compound #44 was tested according to the procedure as described above, with results as listed in Table BIO-4A through Table BIO4-G, below.
In a second study, Compound #44 was tested according to the procedure as described above, with results as listed in Tables BIO-5A through 5G, below.

A further data set has as its system Male SD rats. In words: Open field locomotor activity in rats (CNS activity), stereotypic counts. The conditions noted are these: 4 hour monitoring, vehicle 3022. It is filed as in vivo, rat.
Excerpt: (§2) Male Sprague Dawley rats were ordered from Charles River (225-250 gm upon arrival). They were fed standard chow diet (Purina 5001) and housed 2 per cage. Male C57bl/6j mice were ordered from Charles River at 22-25 g and housed 3 per cage. They were fed standard chow (Purina 5001). All animals were housed in a temperature-controlled room with 12-hour light/dark cycle. Animals were given food and water ad libitum, except as noted.
as §1
Male SD rats were weighed and transferred to the Activity Chambers with access to water. After a 2-hr acclimation period, the rats were dosed with vehicle or test compound (@3 and 10 mg/kg). The Activity Chamber monitoring software program was initiated and automatically recorded rat activity in each chamber for a period of 4 hours. At the end of the 4 hour monitoring period, the software was stopped and the rats were removed from the activity chambers. The rats were anesthetized and blood samples were obtained via retro-orbital puncture to determine plasma concentration of compounds. The rats were immediately euthanized with CO2 and the brains removed, washed with PBS, frozen on dry ice and stored at −80° C. for receptor occupancy (RO) analysis. […]

Data set [2] deals with T2, Human CB2R (Cannabinoid receptor 2) (Homo sapiens, UniProt P34972).
T2 construct: host or cells: HEK-293
T2 sequence (P34972 whole entry): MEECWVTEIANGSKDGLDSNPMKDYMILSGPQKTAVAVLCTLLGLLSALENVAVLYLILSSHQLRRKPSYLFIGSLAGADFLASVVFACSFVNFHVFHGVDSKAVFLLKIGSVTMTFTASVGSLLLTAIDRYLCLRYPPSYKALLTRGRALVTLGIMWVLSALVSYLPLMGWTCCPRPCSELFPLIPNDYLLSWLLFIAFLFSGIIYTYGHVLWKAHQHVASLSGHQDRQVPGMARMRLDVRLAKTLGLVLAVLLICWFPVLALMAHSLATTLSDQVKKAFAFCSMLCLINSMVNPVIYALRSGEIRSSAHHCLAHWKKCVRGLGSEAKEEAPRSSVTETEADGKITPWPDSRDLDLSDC
The experiment in a line: CB-2 in vitro cAMP (HTRF) functional assay. It counts as cell-based. The conditions noted are these: mean where tested more than once. The source says:
CB1 and CB2 receptors are Gi-coupled GPCR. Activation of CB1 and CB2 receptors results in a decrease in cAMP production. An inverse agonist of the CB1 or CB2 receptor results in the opposite effect, an increase of cAMP production. The principle of this assay is based on HTRF® technology (Homogeneous Time-Resolved Fluorescence). The method is a competitive immunoassay between native cAMP produced by cells and the cAMP labeled with the fluorophore d2. The tracer binding is quantified by a Mab anti-cAMP labeled with Eu3+ TBP-NHS Cryptate (supplied as part of the assay kit). The specific signal (i.e. energy transfer) is inversely proportional to the concentration of cAMP in the standard or sample.
Human CB1R (Cannabinoid receptor 1) was stably transfected in HEK-293 cells (DiscoveRx, cat: 93-0200C1). Human CB2R (Cannabinoid receptor 2) was stably transfected in HEK-293 cells (DiscoveRx, cat: 93-0201C1). Cell cultures were maintained in media: DMEM (Invitrogen Cat#12430-054) supplemented with 10% HI FBS (Invitrogen Cat#16140-071), 1% L-glutamine (Invitrogen Cat#25030-081), 0.2 mg/ml Hygromycin B (Invitrogen Cat#10687-010), 600 μg/mL G418 (Invitrogen Cat#10131-035), and 1× Penn/Strep (Invitrogen 15140-122). After cell expansion, aliquots were cryo-stored in media containing 5% DMSO (Pierce Cat#20684).
One day prior to experiments media was warmed to 37° C. and the cryo-stored cells were thawed in a 37° C. water bath. The cells were then added to media (10× volume) and the mixture was centrifuged at 1000 RPM for 5 min. The supernate was removed and the cells were re-suspended in media. A sample of the cell suspension was evaluated on a Cedex XS automated cell counter (Innovatis Systems) to determine viable cells/ml. Additional media was added to the cells to achieve a final cell density of 4E5 cells/mL. The cells were then plated into 384 well PDL white solid bottom plates (Greiner, Cat#781945) at 20 μL per well using a Multidrop (Thermo Scientific). Cells were removed from Row P (location of cAMP standards). Two columns of cells were plated into a clear bottom 384 well PDL coated plate (Greiner, Cat#781944) to view confluence the day of the assay. The cell plates were lidded and stored for 15 minutes in a hood, then transferred to an incubator (37° C., 5% CO2, 95% humidity) overnight.
DMSO was added to all wells of 384 well V bottom polystyrene plate (Greiner, Cat#781280) except to columns 1 and 13, rows O and P and wells M13-M23 and N13-N23. Test compounds (60 μL, 10 mM) were added to Column 1 and 13 (A1 through N1 and A13 through L13). Test compounds were serially diluted 1/3 by transferring and mixing 20 μl sample with 40 μL DMSO.
DMSO (40 μL) was added to wells of 384 well V bottom polystyrene plate: O2 through O11, M14 through M23, N14 through N23, and O14 through O23. AM630 (also known as [6-iodo-2-methyl-1-[2-(4-morpholinyl)ethyl]-1H-indol-3-yl](4-methoxyphenyl)-methanone, Cayman Chemical, Cat#10006974) (60 μL, 10 mM) was added to O1; and 1-(2,4-dichlorophenyl)-7-[(4-fluorophenyl)methylene]-4,5,6,7-tetrahydro-N-1-piperidinyl-1H-indazole-3-carboxamide (60 μL, 10 mM) was added to N13. The control was serially diluted 1/3 by transferring and mixing 20 μl sample with 40 μL DMSO. This process resulted 11 doses per control, 10 mM to […].
Cells plated the day prior to the assay in clear bottom plates were viewed on an inverse microscope to ensure confluency in the range of 60-75%. […]
(TR-FRET usually uses a lanthanide donor and a delayed reading to cut background.)

Data set [3] is described as follows: Mouse Fast PK/BBB (plasma and brain concentration). It is filed as in vivo, Male C57bl/6j mice. As to conditions: 1 hr after oral dosing; 30 mg/kg or 20 mg/kg; N=3.
Excerpt: as §2, §1
Male C57bl/6j mice were dosed with test compounds at 30 mg/kg. Plasma was collected via retro-orbital bleeding at 1 hr and 4 hrs after dosing. […] Wet brain weight was recorded before freezing. Brains were homogenized in saline and sent for analysis for determination of concentration of test compound.
Table BIO-3 below present results for representative compounds of the present invention, tested according to the procedure as described above. Each compound was tested in three animals (N=3) and administered PA at 20 mg/kg

Each structure is given as a SMILES string. Bounds are passed on as bounds.

T1 sequence (P34972 whole entry): as above
hCB1-CHO-K1 membranes, sequence (P21554 whole entry): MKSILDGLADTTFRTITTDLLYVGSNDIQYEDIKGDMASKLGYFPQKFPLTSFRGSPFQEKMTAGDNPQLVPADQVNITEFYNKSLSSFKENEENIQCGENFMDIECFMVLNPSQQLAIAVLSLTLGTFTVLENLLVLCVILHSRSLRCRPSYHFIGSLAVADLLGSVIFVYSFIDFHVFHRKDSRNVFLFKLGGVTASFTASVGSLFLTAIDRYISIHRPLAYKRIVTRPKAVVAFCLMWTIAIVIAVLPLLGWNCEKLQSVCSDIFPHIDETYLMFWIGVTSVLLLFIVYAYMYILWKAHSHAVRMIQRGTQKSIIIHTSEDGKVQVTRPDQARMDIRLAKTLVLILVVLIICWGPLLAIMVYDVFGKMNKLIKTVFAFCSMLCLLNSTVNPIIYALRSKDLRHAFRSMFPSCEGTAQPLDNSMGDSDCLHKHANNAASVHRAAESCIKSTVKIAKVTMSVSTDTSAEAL
Protocol for hCB1-CHO-K1 membranes: Into Greiner V bottom polypropylene plates, hCB1-CHO-K1 membranes (2 μg/well final concentration) in assay buffer (50 mM Tris-HCl pH 7.4, 5 mM MgCl2 and 0.5 mg/ml (0.05%) Ultra fatty acid free BSA) were dispensed. Membranes were purchased from Perkin Elmer. Test compounds were then added to each well and then [^3H] CP 55, 940 (0.4 nM final well concentration) in assay buffer (50 mM Tris-HCl pH 7.4, 5 mM MgCl2 and 0.5 mg/ml (0.05%) Ultra fatty acid free BSA) was added. Samples were mixed and incubated for 90 min at 30° C. in the Greiner V Bottom Polypropylene plate. After incubation, assay reagents were transferred to a blocked 384 well polypropylene filter plates. The binding reaction was stopped by filtration and washed seven times with ice cold rinse buffer. Filter plates were then dried overnight at room temperature. The next day, plate bottoms were sealed with plate tape and 15 μl MicroScint 20 was added to each well. Plates were incubated for 2 h and radioactivity was measured by Topcount.
Total Binding levels were achieved by combining membrane, DMSO, and [^3H]
Non-Specific Binding (NSB) levels were achieved by combining membrane, 10 μM final concentration WIN-55,212 (also known as (R)-(+)-[2,3-Dihydro-5-methyl-3[(4-morpholinyl)methyl]pyrrolo[1,2,3-de]-1,4-benzoxazinyl]-(1-naphthalenyl)methanone mesylate, Tocris Biosciences Cat#1038), and [^3H]
Non-specific binding (NSB=10 μM WIN-55,212+Membrane+[^3H] CP-55,940) was used as the negative control, while the Total Binding (TB=DMSO+Membrane+[^3H] CP-55,940) was used as the positive control.
IC50 data was calculated using raw CPM values. Curves were fitted individually from singlet 11 point dosing curves+1% DMSO Control. IC50 values were fit appropriately and calculated using the following equation:
Vmin, CPM at maximum inhibition; Vo, CPM at zero inhibition; IC50, inhibitor concentration at 50% inhibition; h, Hill coefficient.

By IC50 is commonly meant the point on the concentration scale where inhibition reaches its midpoint. A low value points to higher potency. As for `O=c1cc(/C=C/c2ccccc2)c2cc(C(c3ccc(Cl)cc3)c3nccs3)ccc2[nH]1` (centres unmarked) [Compound 25, (E)-6-((4-chlorophenyl)(thiazol-2-yl)methyl)-4-styrylquinolin-2(1H)-one], the IC50 was greater than 5 µM on hCB2-HEK293 membranes and 0.0346 µM on hCB1-CHO-K1 membranes.
For the molecule `Clc1ccc(C(c2ccc3nccc(/C=C/c4ccccc4)c3c2)c2nccs2)cc1` (centres unmarked) [Compound 511], the values for the half-inhibitory concentration (IC50) on hCB2-HEK293 membranes and at hCB1-CHO-K1 membranes were greater than 5 µM and 0.0551 µM, respectively.
The corresponding values for `O=c1cc(NC2CCN(S(=O)(=O)C(F)(F)F)CC2)c2cc(C(c3ccc(Cl)cc3)c3nccs3)ccc2[nH]1` (centres unmarked) [Compound #41, 6-((4-chlorophenyl)(thiazol-2-yl)methyl)-4-((1-((trifluoromethyl)sulfonyl)piperidin-4-yl)amino)quinolin-2(1H)-one] are greater than 5 µM and 0.0044 µM.
Take `O=c1cc(NC2CCN(S(=O)(=O)C(F)(F)F)CC2)c2cc(C(c3ccc(Cl)cc3)c3ccc(Cl)cc3)ccc2[nH]1` [Compound #44, 6-(bis(4-chlorophenyl)methyl)-4-(1-(trifluoromethylsulfonyl)piperidin-4-ylamino)quinolin-2(1H)-one]: the IC50 on hCB2-HEK293 membranes came out at 0.053 µM; on hCB1-CHO-K1 membranes, 0.0012 µM. Also, in data set [1] (1 mg/kg daily, 2 Hours Post Dose, Day 16, first study), the “Plasma Concentration (Std Dev)” value is listed as 431 (62) ng/mL. Besides, the “Brain concentration (Std Dev)” value in data set [1] (0.3 mg/kg, Day 2, 2 hours post dose) is “BLOQ*”; in data set [1] (0.3 mg/kg, Day 23, 2 hours post dose), “BLOQ**”; in data set [1] (1 mg/kg, Day 2, 2 hours post dose) it was “BLOQ*”; in data set [1] (3 mg/kg, Day 2, 2 hours post dose) it was “BLOQ*”. The “Stereotypic Counts (MEAN)” value in the data set with Male SD rats (n=8, first #44 row, dose not printed (presumably 3 mg/kg)) came to 3250; with Male SD rats (n=8, second #44 row, dose not printed (presumably 10 mg/kg)), 2850.
As a reminder, the EC50 is the concentration that produces a half-maximal response. The low end stands for greater potency, the high end for weaker potency. In data set [2], `O=c1cc(Nc2ccc(C(F)(F)F)cc2)c2cc(C(c3ccc(Cl)cc3)c3ccc(Cl)cc3)ccc2[nH]1` [Compound #59, 6-(bis(4-chlorophenyl)methyl)-4-((4-(trifluoromethyl)phenyl)amino)quinolin-2(1H)-one] gave an EC50 greater than 10 µM. In addition, the “BRAIN Mean Conc. ± Std. Dev” value in data set [3] is listed as “BLOQ ± NA”.

The values above are taken from US9464055B2, “Quinoline derivatives useful as CB-1 inverse agonists” (JANSSEN PHARMACEUTICA NV, priority 2014, dated 2016).
